# Laboratory results: PubChem BioAssay (NCI)
#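 These data come from cells grown in 96-well plates and exposed to compound for 48 hours at five concentrations. GI50: concentration for 50% inhibition of growth. At the TGI there is no net growth.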
# What was measured:
# Assay in all cases: growth of human tumour cells (NCI), 48 h
# TK-10 renal = system: TK-10 renal
# UO-31 renal = system: UO-31 renal
# OVCAR-3 ovarian = system: OVCAR-3 ovarian
# CCRF-CEM leukemia = system: CCRF-CEM leukemia
# HOP-62 NSCLC = system: HOP-62 NSCLC
# SNB-19 CNS = system: SNB-19 CNS
# LOX IMVI melanoma = system: LOX IMVI melanoma
# HL-60(TB) leukemia = system: HL-60(TB) leukemia
# MCF7 breast = system: MCF7 breast
# A498 renal = system: A498 renal
# MDA-N = system: MDA-N
# EKVX NSCLC = system: EKVX NSCLC
# NCI-H226 lung = system: NCI-H226 lung
# NCI-H23 lung = system: NCI-H23 lung
# PC-3 prostate = system: PC-3 prostate
# DU-145 prostate = system: DU-145 prostate
# SW-620 colon = system: SW-620 colon
# UACC-62 melanoma = system: UACC-62 melanoma
# NCI/ADR-RES ovarian = system: NCI/ADR-RES ovarian
# SK-OV-3 ovarian = system: SK-OV-3 ovarian
# HCT-15 colon = system: HCT-15 colon
# SF-539 CNS = system: SF-539 CNS
# U251 CNS = system: U251 CNS
# KM12 colon = system: KM12 colon
# COLO 205 colon = system: COLO 205 colon
# SN12C renal = system: SN12C renal
# HT29 colon = system: HT29 colon
# SK-MEL-28 melanoma = system: SK-MEL-28 melanoma
# HS 578T breast = system: HS 578T breast
# HCT-116 colon = system: HCT-116 colon
# SF-295 CNS = system: SF-295 CNS
# IGROV1 ovarian = system: IGROV1 ovarian
# ACHN renal = system: ACHN renal
# NCI-H522 lung = system: NCI-H522 lung
# OVCAR-8 ovarian = system: OVCAR-8 ovarian
# SR leukemia = system: SR leukemia
# SNB-75 CNS = system: SNB-75 CNS
# K-562 leukemia = system: K-562 leukemia
# 786-0 renal = system: 786-0 renal
# MDA-MB-231 breast = system: MDA-MB-231 breast
# CAKI-1 renal = system: CAKI-1 renal
# MDA-MB-435 = system: MDA-MB-435
# MOLT-4 leukemia = system: MOLT-4 leukemia
# T-47D breast = system: T-47D breast
# OVCAR-5 ovarian = system: OVCAR-5 ovarian
# OVCAR-4 ovarian = system: OVCAR-4 ovarian
# M14 melanoma = system: M14 melanoma
# RPMI-8226 leukemia = system: RPMI-8226 leukemia
# SF-268 CNS = system: SF-268 CNS
# A549 NSCLC = system: A549 NSCLC
# NCI-H460 lung = system: NCI-H460 lung
# SK-MEL-2 melanoma = system: SK-MEL-2 melanoma
# UACC-257 melanoma = system: UACC-257 melanoma
# SK-MEL-5 melanoma = system: SK-MEL-5 melanoma
# BT-549 breast = system: BT-549 breast
# HCC-2998 colon = system: HCC-2998 colon
# HOP-92 NSCLC = system: HOP-92 NSCLC
# RXF 393 renal = system: RXF 393 renal
compound,measurement,setting,value
COc1cc(NCC2COc3c(ccc(OC)c3OC)C2=O)c([N+](=O)[O-])cc1OC (stereo unspecified),TGI,TK-10 renal,> 100 µM
same,TGI,UO-31 renal,> 100 µM
same,TGI,OVCAR-3 ovarian,> 100 µM
same,TGI,CCRF-CEM leukemia,> 100 µM
same,TGI,HOP-62 NSCLC,> 100 µM
same,TGI,SNB-19 CNS,> 100 µM
same,TGI,LOX IMVI melanoma,> 100 µM
same,TGI,HL-60(TB) leukemia,> 100 µM
same,TGI,MCF7 breast,> 100 µM
same,TGI,A498 renal,> 100 µM
same,TGI,MDA-N,> 100 µM
same,TGI,EKVX NSCLC,> 100 µM
same,TGI,NCI-H226 lung,> 100 µM
same,TGI,NCI-H23 lung,> 100 µM
same,TGI,PC-3 prostate,> 100 µM
same,TGI,DU-145 prostate,> 100 µM
same,TGI,SW-620 colon,> 100 µM
same,TGI,UACC-62 melanoma,> 100 µM
same,TGI,NCI/ADR-RES ovarian,> 100 µM
same,TGI,SK-OV-3 ovarian,> 100 µM
same,TGI,HCT-15 colon,> 100 µM
same,TGI,SF-539 CNS,> 100 µM
same,TGI,U251 CNS,> 100 µM
same,TGI,KM12 colon,> 100 µM
same,TGI,COLO 205 colon,> 100 µM
same,TGI,SN12C renal,> 100 µM
same,TGI,HT29 colon,> 100 µM
same,TGI,SK-MEL-28 melanoma,> 100 µM
same,TGI,HS 578T breast,> 100 µM
same,TGI,HCT-116 colon,> 100 µM
same,TGI,SF-295 CNS,> 100 µM
same,TGI,IGROV1 ovarian,> 100 µM
same,TGI,ACHN renal,> 100 µM
same,TGI,NCI-H522 lung,> 100 µM
same,TGI,OVCAR-8 ovarian,> 100 µM
same,TGI,SR leukemia,> 100 µM
same,TGI,SNB-75 CNS,> 100 µM
same,TGI,K-562 leukemia,> 100 µM
same,TGI,786-0 renal,> 100 µM
same,TGI,MDA-MB-231 breast,> 100 µM
same,TGI,CAKI-1 renal,> 100 µM
same,TGI,MDA-MB-435,> 100 µM
same,TGI,MOLT-4 leukemia,> 100 µM
same,TGI,T-47D breast,> 100 µM
same,TGI,OVCAR-5 ovarian,> 100 µM
same,TGI,OVCAR-4 ovarian,> 100 µM
same,TGI,M14 melanoma,> 100 µM
same,TGI,RPMI-8226 leukemia,> 100 µM
same,TGI,SF-268 CNS,> 100 µM
same,TGI,A549 NSCLC,> 100 µM
same,TGI,NCI-H460 lung,> 100 µM
same,TGI,SK-MEL-2 melanoma,> 100 µM
same,TGI,UACC-257 melanoma,> 100 µM
same,TGI,SK-MEL-5 melanoma,> 100 µM
CC1SC(c2c(Cl)cccc2Cl)N(NC(=O)C(O)c2ccccc2)C1=O (stereo unspecified),GI50,TK-10 renal,> 100 µM
same,TGI,TK-10 renal,> 100 µM
same,GI50,UO-31 renal,> 100 µM
same,TGI,UO-31 renal,> 100 µM
same,GI50,OVCAR-3 ovarian,54.1 µM
same,TGI,OVCAR-3 ovarian,> 100 µM
same,GI50,CCRF-CEM leukemia,74.6 µM
same,TGI,CCRF-CEM leukemia,> 100 µM
same,GI50,HOP-62 NSCLC,89.3 µM
same,TGI,HOP-62 NSCLC,> 100 µM
same,GI50,SNB-19 CNS,> 100 µM
same,TGI,SNB-19 CNS,> 100 µM
same,GI50,LOX IMVI melanoma,60.7 µM
same,TGI,LOX IMVI melanoma,> 100 µM
same,GI50,HL-60(TB) leukemia,94 µM
same,TGI,HL-60(TB) leukemia,> 100 µM
same,GI50,MCF7 breast,74.2 µM
same,TGI,MCF7 breast,> 100 µM
same,GI50,A498 renal,75.7 µM
same,TGI,A498 renal,> 100 µM
same,GI50,EKVX NSCLC,> 100 µM
same,TGI,EKVX NSCLC,> 100 µM
same,GI50,NCI-H226 lung,> 100 µM
same,TGI,NCI-H226 lung,> 100 µM
same,GI50,PC-3 prostate,39.7 µM
same,TGI,PC-3 prostate,> 100 µM
same,GI50,BT-549 breast,> 100 µM
same,TGI,BT-549 breast,> 100 µM
same,GI50,HCC-2998 colon,> 100 µM
same,TGI,HCC-2998 colon,> 100 µM
same,GI50,DU-145 prostate,> 100 µM
same,TGI,DU-145 prostate,> 100 µM
same,GI50,SW-620 colon,> 100 µM
same,TGI,SW-620 colon,> 100 µM
same,GI50,UACC-62 melanoma,50.2 µM
same,TGI,UACC-62 melanoma,> 100 µM
same,GI50,NCI/ADR-RES ovarian,45.4 µM
same,TGI,NCI/ADR-RES ovarian,> 100 µM
same,GI50,SK-OV-3 ovarian,> 100 µM
same,TGI,SK-OV-3 ovarian,> 100 µM
same,GI50,HCT-15 colon,47.3 µM
same,TGI,HCT-15 colon,> 100 µM
same,GI50,SF-539 CNS,> 100 µM
same,TGI,SF-539 CNS,> 100 µM
same,GI50,U251 CNS,54.1 µM
same,TGI,U251 CNS,> 100 µM
same,GI50,KM12 colon,44.1 µM
same,TGI,KM12 colon,> 100 µM
same,GI50,COLO 205 colon,> 100 µM
same,TGI,COLO 205 colon,> 100 µM
same,GI50,SN12C renal,> 100 µM
same,TGI,SN12C renal,> 100 µM
same,GI50,HT29 colon,> 100 µM
same,TGI,HT29 colon,> 100 µM
same,GI50,SK-MEL-28 melanoma,> 100 µM
same,TGI,SK-MEL-28 melanoma,> 100 µM
same,GI50,HS 578T breast,> 100 µM
same,TGI,HS 578T breast,> 100 µM
same,GI50,HCT-116 colon,56 µM
same,TGI,HCT-116 colon,> 100 µM
same,GI50,HOP-92 NSCLC,57.8 µM
same,TGI,HOP-92 NSCLC,> 100 µM
same,GI50,SF-295 CNS,> 100 µM
same,TGI,SF-295 CNS,> 100 µM
same,GI50,IGROV1 ovarian,62.9 µM
same,TGI,IGROV1 ovarian,> 100 µM
same,GI50,ACHN renal,92.2 µM
same,TGI,ACHN renal,> 100 µM
same,GI50,NCI-H522 lung,60.9 µM
same,TGI,NCI-H522 lung,> 100 µM
same,GI50,OVCAR-8 ovarian,> 100 µM
same,TGI,OVCAR-8 ovarian,> 100 µM
same,GI50,SR leukemia,34.9 µM
same,TGI,SR leukemia,> 100 µM
same,GI50,SNB-75 CNS,46.9 µM
same,TGI,SNB-75 CNS,> 100 µM
same,GI50,K-562 leukemia,39.9 µM
same,TGI,K-562 leukemia,> 100 µM
same,GI50,786-0 renal,> 100 µM
same,TGI,786-0 renal,> 100 µM
same,GI50,MDA-MB-231 breast,31.6 µM
same,TGI,MDA-MB-231 breast,> 100 µM
same,GI50,CAKI-1 renal,62.1 µM
same,TGI,CAKI-1 renal,> 100 µM
same,GI50,MDA-MB-435,43.2 µM
same,TGI,MDA-MB-435,> 100 µM
same,GI50,MOLT-4 leukemia,> 100 µM
same,TGI,MOLT-4 leukemia,> 100 µM
same,GI50,T-47D breast,48.2 µM
same,TGI,T-47D breast,> 100 µM
same,GI50,OVCAR-5 ovarian,> 100 µM
same,TGI,OVCAR-5 ovarian,> 100 µM
same,GI50,OVCAR-4 ovarian,> 100 µM
same,TGI,OVCAR-4 ovarian,> 100 µM
same,GI50,M14 melanoma,87 µM
same,TGI,M14 melanoma,> 100 µM
same,GI50,RPMI-8226 leukemia,35.8 µM
same,TGI,RPMI-8226 leukemia,> 100 µM
same,GI50,SF-268 CNS,> 100 µM
same,TGI,SF-268 CNS,> 100 µM
same,GI50,A549 NSCLC,94 µM
same,TGI,A549 NSCLC,> 100 µM
same,GI50,NCI-H460 lung,> 100 µM
same,TGI,NCI-H460 lung,> 100 µM
same,GI50,SK-MEL-2 melanoma,> 100 µM
same,TGI,SK-MEL-2 melanoma,> 100 µM
same,GI50,UACC-257 melanoma,86.3 µM
same,TGI,UACC-257 melanoma,> 100 µM
same,GI50,SK-MEL-5 melanoma,68.4 µM
same,TGI,SK-MEL-5 melanoma,> 100 µM
same,GI50,RXF 393 renal,93.2 µM
same,TGI,RXF 393 renal,> 100 µM
